pIC50: −log10 of the molar value.
Molecular target: T1, Menin-MLL (Homo sapiens, UniProt O00255)
T1 construct: His-Menin (M1-L615 end); purchased BIORTUS BP9210
T1 sequence (O00255 1-615 isoform O00255-1): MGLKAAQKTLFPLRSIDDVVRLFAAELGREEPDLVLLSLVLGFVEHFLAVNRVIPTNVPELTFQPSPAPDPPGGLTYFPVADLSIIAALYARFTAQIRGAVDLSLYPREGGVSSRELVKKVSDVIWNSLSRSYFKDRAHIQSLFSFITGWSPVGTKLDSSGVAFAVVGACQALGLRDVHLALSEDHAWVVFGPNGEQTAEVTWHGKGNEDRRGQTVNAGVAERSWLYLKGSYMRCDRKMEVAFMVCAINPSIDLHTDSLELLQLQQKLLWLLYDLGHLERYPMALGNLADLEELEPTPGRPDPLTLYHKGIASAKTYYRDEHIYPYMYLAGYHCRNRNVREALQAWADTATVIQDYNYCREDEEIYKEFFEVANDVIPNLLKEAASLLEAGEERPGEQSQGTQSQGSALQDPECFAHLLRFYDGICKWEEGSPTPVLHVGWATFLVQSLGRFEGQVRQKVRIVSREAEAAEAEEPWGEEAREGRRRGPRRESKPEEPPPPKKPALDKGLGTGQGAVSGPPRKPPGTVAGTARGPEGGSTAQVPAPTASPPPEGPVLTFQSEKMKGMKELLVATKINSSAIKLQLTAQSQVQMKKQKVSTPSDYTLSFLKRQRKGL
Experiment: Inhibitory activity against Menin-MLL binding (fluorescence polarization)
Conditions: Menin-MLL IC50, fluorescence polarization; 150 nM His-Menin, 15 nM FITC-MLL; 25°C for 60 min
Method in brief: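 His-Menin (M1-L615, 150 nM) preincubated with compound 15 min at 25 °C in HEPES pH 7.5, 50 mM NaCl, 1 mM DTT, 0.01% BSA, then 15 nM FITC-MLL4-43 peptide added for 60 min at 25 °C. Fluorescence polarization read; IC50 from 4-parameter logistic fit, duplicates.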

`CCN(C(=O)c1cc(F)ccc1-c1cc(N2CCN(CC[C@H]3CC[C@H](NS(=O)(=O)CC)CC3)CC2)cn2c(C)ncc12)C(C)C` [Compound 65, N-ethyl-5-fluoro-2-[3-methyl-6-(4-{2-[(1r,4r)-4-ethanesulfonamidocyclohexyl]ethyl}piperazine-1-yl)imidazo[1,5-a]pyridin-8-yl]-N-(isopropyl)benzamide] was tested. Which pIC50 did it give?
The pIC50 was 6.87.

`CCN(C(=O)c1cc(F)ccc1-c1cc([C@H]2CCN(C[C@H]3CC[C@H](NS(=O)(=O)CC)CC3)C2)nc2c1cnn2C)C(C)C` [Example 11-2, N-ethyl-5-fluoro-2-{1-methyl-6-[(3S)-1-{[(1r,4r)-4-ethanesulfonamidocyclohexyl]methyl}pyrrolidin-3-yl]-1H-pyrazolo[3,4-b]pyridin-4-yl}-N-(isopropyl)benzamide] was tested. Which pIC50 did it give?
The pIC50 was 7.18.

How did the pIC50 turn out when `CCS(=O)(=O)N[C@H]1CC[C@H](CN2CC(c3cc(-c4ccc(F)cc4C(=O)N(CC(F)F)C(C)C)c4cnn(C)c4c3)C2)CC1` [Example 153, N-(2,2-difluoroethyl)-5-fluoro-2-[1-methyl-6-(1-{[(1r,4r)-4-ethanesulfonamidocyclohexyl]methyl}-azacyclobutan-3-yl)-1H-indazol-4-yl]-N-(isopropyl)benzamide] was run?
Its pIC50 is 7.51.

`Cc1nc(F)c2c(-c3ccc(F)cc3C(=O)N3CCOCC3C)cc(C3CN(C(C)C4CCN(C(=O)C5CC5F)CC4)C3)cn12` (stereo not drawn) [Example 301] was tested. Which pIC50 did it give?
The pIC50 was 8.05.

With `CC[C@H](C)[C@H](NC)C(=O)N1CC(c2cc(-c3ccc(F)cc3C(=O)N(CC)C(C)C)c3c(F)nc(C)n3c2)C1` [Example 316] as the molecule, how does the pIC50 read?
Its pIC50 is 7.00.

With `CCN(C(=O)c1cc(F)ccc1-c1cc(C2CCN(C[C@]3(F)CC[C@H](NS(=O)(=O)CC)CC3)C2)cn2c(C)ncc12)C(C)C` (stereo partly drawn) [Compound 51, N-ethyl-5-fluoro-2-[3-methyl-6-(1-{[(1r,4r)-4-ethanesulfonamido-1-fluorocyclohexyl]methyl}pyrrolidin-3-yl)imidazo[1,5-a]pyridin-8-yl]-N-(isopropyl)benzamide] as the molecule, how does the pIC50 read?
The pIC50 was 7.19.

`CCN(C(=O)c1cc(F)ccc1-c1cc(C2CCN(C[C@H]3CC[C@@H](NS(=O)(=O)CC)CC3)C2)cc2cncn12)C(C)C` (mixture of isomers) [Example 26, N-ethyl-5-fluoro-N-isopropyl-2-[7-(1-{[(1s,4s)-4-ethanesulfonamidocyclohexyl]methyl}pyrrolidin-3-yl)imidazo[1,5-a]pyridin-5-yl]benzamide] was tested. Which pIC50 did it give?
Its pIC50 is 7.35.

How did the pIC50 turn out when `CCN(C(=O)c1cc(F)ccc1-c1cc(C2CN(C(=O)[C@@H]3CCCCN3)C2)cn2c(C)nc(Cl)c12)C(C)C` [Example 126] was run?
Its pIC50 is 7.72.

`CCN(C(=O)c1cc(F)ccc1-c1cc(C2CN([C@H](CCCN3CCN4C(=O)OCC4(CO)C3)C(C)C)C2)cn2c(C)ncc12)C(C)C` (stereo partly drawn) [Example 484, 2-(6-{1-[(3R)-6-[8^a-(hydroxymethyl)-3-oxo-hexahydro-1H-[1,3]oxazolo[3,4-a]pyrazin-7-yl]-2-methylhexan-3-yl]azacyclobutan-3-yl}-3-methylimidazo[1,5-a]pyridin-8-yl)-N-ethyl-5-fluoro-N-(isopropyl)benzamide] was tested. Which pIC50 did it give?
Its pIC50 is 8.38.

Same assay, conditions: fluorescence polarization; 150 nM His-Menin, 15 nM FITC-MLL; 25°C for 60 min; read-out: Menin-MLL IC50

`CC(C)N(CC(F)F)C(=O)c1cc(F)ccc1-c1cc([C@@H]2CCN(CCN3CCC(NC(=O)OC(C)(C)C)CC3)C2)cc2c1cnn2C` [Example 166-1, N-(1-{2-[(3S)-3-(4-{2-[(2,2-difluoroethyl)(isopropyl)aminoformyl]-4-fluorophenyl}-1-methyl-1H-indazol-6-yl)pyrrolidin-1-yl]ethyl}piperidin-4-yl)tert-butyl carbamate] was tested. Which pIC50 did it give?
Its pIC50 is 6.64.

How did the pIC50 turn out when `CC(C)N(CC(F)F)C(=O)c1cc(F)ccc1-c1cc([C@H]2CCN(CCN3CCC(NC(=O)OC(C)(C)C)CC3)C2)cc2c1cnn2C` [Example 166-2, N-(1-{2-[(3R)-3-(4-{2-[(2,2-difluoroethyl)(isopropyl)aminoformyl]-4-fluorophenyl}-1-methyl-1H-indazol-6-yl)pyrrolidin-1-yl]ethyl}piperidin-4-yl)tert-butyl carbamate] was run?
Its pIC50 is 6.61.

`CO[C@H]1CCN(CCC[C@@H](C(C)C)N2CC(c3cc(-c4ccc(F)cc4C(=O)N4CCOC[C@H]4C)c4cnn(C)c4c3)C2)C1` [Example 184-1] was tested. Which pIC50 did it give?
Its pIC50 is 6.09.

How did the pIC50 turn out when `Cc1nc(F)c2c(-c3ccc(F)cc3C(=O)N3CCOC[C@H]3C)cc(C3CN(CC4CCN(S(=O)(=O)C5CC5)CC4)C3)cn12` [Example 252] was run?
The pIC50 was 6.96.

`C=C1C[C@@H]2CC[C@H]1[C@@H](C(=O)N1CCC(c3cc(-c4ccc(F)cc4C(=O)N(CC)C(C)C)c4cncn4c3)CC1)N2` [Compound 39, N-ethyl-5-fluoro-2-(6-{1-[(1S,3S,4R)-5-methylene-2-azabicyclo[2.2.2]octan-3-carbonyl]piperidin-4-yl}imidazo[1,5-a]pyridin-8-yl)-N-(isopropyl)benzamide] was tested. Which pIC50 did it give?
The pIC50 was 6.86.

How did the pIC50 turn out when `Cc1nc(F)c2c(-c3ccc(F)cc3C(=O)N3CCOC[C@H]3C)cc(C3CN([C@@H](CCCN4CCOCC4)C(C)C)C3)cn12` [Example 199-2, (3R)-4-[5-fluoro-2-(1-fluoro-3-methyl-6-{1-[(3S)-2-methyl-6-(morpholin-4-yl)hexan-3-yl]azacyclobutan-3-yl}imidazo[1,5-a]pyridin-8-yl)benzoyl]-3-methylmorpholine] was run?
The pIC50 was 6.69.

With `CCN(C(=O)c1cc(F)ccc1-c1cc(C2CCN(C[C@H]3C[C@@H](NS(=O)(=O)CC)C3)C2)cn2c(C)ncc12)C(C)C` (stereo partly drawn) [Example 103] as the molecule, how does the pIC50 read?
The pIC50 was 7.15.

With `CCN(C(=O)c1cc(F)ccc1-c1cc(N2CCN(C(=O)[C@@H]3CCCN3)CC2)cn2c(C)ncc12)C(C)C` [Example 92] as the molecule, how does the pIC50 read?
The pIC50 was 7.33.

With `CCN(C(=O)c1cc(F)ccc1-c1cc(C2CN([C@@H](CCCN3CCN(C(C)=O)CC3)C(C)C)C2)cn2c(C)nc(F)c12)C(C)C` [Example 313] as the molecule, how does the pIC50 read?
Its pIC50 is 7.32.

With `Cc1nc(F)c2c(-c3ccc(F)cc3C(=O)N3CCOC[C@H]3C)cc(C3CN(CC4CCN(C(=O)N(C)C)CC4)C3)cn12` [Example 246] as the molecule, how does the pIC50 read?
The pIC50 was 7.14.

How did the pIC50 turn out when `COCCN(C)CCCC(C(C)C)N1CC(c2cc(-c3ccc(F)cc3C(=O)N(CC(F)F)C(C)C)c3cnn(C)c3c2)C1` (stereo not drawn) [Example 180] was run?
Its pIC50 is 7.66.

How did the pIC50 turn out when `CCN(C(=O)c1cc(F)ccc1-c1cc(C2CN([C@H](CCCN3CCC[C@H](O)C3)C(C)C)C2)cn2c(C)ncc12)C(C)C` [Example 327] was run?
Its pIC50 is 8.74.

`CC(=O)N1CCC([C@@H](C)N2CC(c3cc(-c4ccc(F)cc4C(=O)N4CCOC[C@H]4C)c4c(F)nc(C)n4c3)C2)CC1` [Example 257-1, 1-{4-[(1R)-1-[3-(1-fluoro-8-{4-fluoro-2-[(3R)-3-methylmorpholin-4-carbonyl]phenyl}-3-methylimidazo[1,5-a]pyridin-6-yl)azacyclobutan-1-yl]ethyl]piperidin-1-yl}ethan-1-one] was tested. Which pIC50 did it give?
The pIC50 was 6.88.

With `Cc1nc(F)c2c(-c3ccc(F)cc3C(=O)N3CCOC[C@H]3C)cc(C3CN(C(CC[C@H]4COCCN4C)C(C)C)C3)cn12` (stereo partly drawn) [Example 374, (3R)-4-{5-fluoro-2-[1-fluoro-3-methyl-6-(1-{4-methyl-1-[(3S)-4-methylmorpholin-3-yl]pentan-3-yl}azacyclobutan-3-yl)imidazo[1,5-a]pyridin-8-yl]benzoyl}-3-methylmorpholine] as the molecule, how does the pIC50 read?
The pIC50 was 7.59.

With `Cc1nc(F)c2c(-c3ccc(F)cc3C(=O)N3CCOC[C@H]3C)cc(C3CN(CC4CCCOC4)C3)cn12` (stereo partly drawn) [Example 235] as the molecule, how does the pIC50 read?
Its pIC50 is 7.31.

`Cc1nc(F)c2c(-c3ccc(F)cc3C(=O)N(CC(F)F)C(C)C)cc(C3CN(C(=O)[C@H]4NCC[C@@H]4C)C3)cn12` [Example 156] was tested. Which pIC50 did it give?
Its pIC50 is 7.52.

How did the pIC50 turn out when `Cc1nc(F)c2c(-c3ccc(F)cc3C(=O)N3CCOC[C@H]3C)cc(C3CN(CC4CCOC4)C3)cn12` (stereo partly drawn) [Example 240] was run?
The pIC50 was 7.27.

With `CCN(C(=O)c1cc(F)ccc1-c1cc(C2(F)CN(C(=O)[C@H]3N[C@@H]4CC[C@H]3C4)C2)cn2cncc12)C(C)C` [Example 34, 2-(6-{1-[(1R,3S,4S)-2-azabicyclo[2.2.1]heptan-3-carbonyl]-3-fluoroazacyclobutan-3-yl}imidazo[1,5-a]pyridin-8-yl)-N-ethyl-5-fluoro-N-(isopropyl)benzamide] as the molecule, how does the pIC50 read?
The pIC50 was 6.77.

How did the pIC50 turn out when `CCN(C(=O)c1cc(F)ccc1-c1cc(C2CN([C@H](CN3CCN(CCOC)CC3)C(C)C)C2)cc2c1cnn2C)C(C)C` [Example 422] was run?
The pIC50 was 7.54.

With `CCN(C(=O)c1cc(F)ccc1-c1cc(N2CCC(NCC3(F)CCC(NS(=O)(=O)CC)CC3)CC2)cn2c(C)ncc12)C(C)C` (stereo not drawn) [Compound 57, 2-[6-(4-{[(4-ethanesulfonamido-1-fluorocyclohexyl)methyl]amino}piperidin-1-yl)-3-methylimidazo[1,5-a]pyridin-8-yl]-N-ethyl-5-fluoro-N-(isopropyl)benzamide] as the molecule, how does the pIC50 read?
Its pIC50 is 6.97.

`CCS(=O)(=O)N[C@@H]1CC[C@@H](CN2CCC(c3cc(-c4ccc(F)cc4C(=O)N(CC(F)F)C(C)C)c4cnc(C)n4c3)C2)OC1` (stereo partly drawn) [Example 163, N-(2,2-difluoroethyl)-2-[6-(1-{[(2S,5R)-5-ethanesulfonamidooxacyclohexan-2-yl]methyl}pyrrolidin-3-yl)-3-methylimidazo[1,5-a]pyridin-8-yl]-5-fluoro-N-(isopropyl)benzamide] was tested. Which pIC50 did it give?
The pIC50 was 7.42.

From patent EP4782453A1 (Beyang Therapeutics Co., Ltd., priority 2023, dated 2025)
